Converted amounts (≈) assume the structure as drawn. Like-named read-outs stand apart in the source and are kept apart here.
Legend:
Format in all cases: cell-based
[1] = tested on: E. faecalis; test: MIC, Gram-positive bacteria: E. faecalis; conditions: Enterococcus faecalis, column 1, read-out: Minimal Inhibitory Concentration (MIC) E. faecalis
[2] = tested on: E. faecium ATCC 35667; test: MIC, Gram-positive bacteria: E. faecium ATCC 35667; conditions: Enterococcus faecium, ATCC35667, column 2, read-out: Minimal Inhibitory Concentration (MIC) E. faecium ATCC 35667
[3] = tested on: E. faecium VRE; vanA; test: MIC, Gram-positive bacteria: E. faecium VRE; vanA; conditions: Enterococcus faecium, column 3, read-out: Minimal Inhibitory Concentration (MIC) E. faecium VRE
[4] = tested on: S. aureus; test: MIC, Gram-positive bacteria: S. aureus (strains not named); conditions: Staphylococcus aureus, read-out: Minimal Inhibitory Concentration (MIC) S. aureus
[5] = tested on: S. aureus Vat A streptogramin; test: MIC, Gram-positive bacteria: S. aureus Vat A streptogramin; conditions: Staphylococcus aureus; Gram-positive; column 5; read-out: Minimal Inhibitory Concentration (MIC) S. aureus Vat A streptogramin
[6] = tested on: S. aureus Linezolid-resistant; cfr; test: MIC, Gram-positive bacteria: S. aureus Linezolid-resistant; cfr; conditions: Staphylococcus aureus, column 9, read-out: Minimal Inhibitory Concentration (MIC) S. aureus Linezolid-resistant
[7] = tested on: S. pneumoniae; test: MIC, Gram-positive bacteria: S. pneumoniae; conditions: Streptococcus pneumoniae, column 10, read-out: Minimal Inhibitory Concentration (MIC) S. pneumoniae
[8] = tested on: K. pneumoniae multidrug-resistant; test: MIC, Gram-negative bacteria: K. pneumoniae multidrug-resistant; conditions: Klebsiella pneumoniae, read-out: Minimal Inhibitory Concentration (MIC) K. pneumoniae multidrug-resistant
[9] = tested on: P. aeruginosa ATCC 27853; test: MIC, Gram-negative bacteria: P. aeruginosa ATCC 27853; conditions: Pseudomonas aeruginosa, ATCC27853, read-out: Minimal Inhibitory Concentration (MIC) P. aeruginosa ATCC 27853
[10] = tested on: P. aeruginosa MDR clinical isolate; test: MIC, Gram-negative bacteria: P. aeruginosa MDR clinical isolate; conditions: Pseudomonas aeruginosa, read-out: Minimal Inhibitory Concentration (MIC) P. aeruginosa MDR clinical isolate
[11] = tested on: H. influenzae ATCC 49247; test: MIC, Gram-negative bacteria: H. influenzae ATCC 49247; conditions: Haemophilus influenzae, ATCC49247, read-out: Minimal Inhibitory Concentration (MIC) H. influenzae ATCC 49247
[12] = tested on: Gram-Negative Organisms; test: microbe, parasite or virus in culture
[13] = first unnamed S. aureus column (c4)
[14] = fourth unnamed S. aureus column (c8)
[15] = second unnamed S. aureus column (c6)
[16] = third unnamed S. aureus column (c7)
[17] = Acinetobacter baumannii, ATCC19606, read-out: Minimal Inhibitory Concentration (MIC), A. baumannii ATCC 19606
[18] = Escherichia coli, ATCC25922, read-out: Minimal Inhibitory Concentration (MIC), E. coli ATCC 25922
[19] = Escherichia coli, read-out: Minimal Inhibitory Concentration (MIC), E. coli BAS2006, OMP C, OMP F
[20] = Escherichia coli, read-out: Minimal Inhibitory Concentration (MIC), E. coli olC efflux defective
[21] = Escherichia coli, read-out: Minimal Inhibitory Concentration (MIC), E. coli permeability mutant BAS1314, IMP4213ZAB::TN10
[22] = Escherichia coli, read-out: Minimal Inhibitory Concentration (MIC), E. coli ΔompC768, KanR insert
[23] = Klebsiella pneumoniae, ATCC43816, read-out: Minimal Inhibitory Concentration (MIC), K. pneumoniae ATCC 43816

Structure (SMILES) | MIC [1] [µg/mL] | MIC [2] [µg/mL] | MIC [3] [µg/mL] | MIC [4, 13] [µg/mL] | MIC [4, 14] [µg/mL] | MIC [4, 15] [µg/mL] | MIC [4, 16] [µg/mL] | MIC [5] [µg/mL] | MIC [6] [µg/mL] | MIC [7] [µg/mL] | MIC [8] [µg/mL] | MIC [9] [µg/mL] | MIC [10] [µg/mL] | MIC [11] [µg/mL] | MIC [12, 17] [µg/mL] | MIC [12, 18] [µg/mL] | MIC [12, 19] [µg/mL] | MIC [12, 20] [µg/mL] | MIC [12, 21] [µg/mL] | MIC [12, 23] [µg/mL] | other results
CC1=C\[C@@H](O)CC(=O)Cc2nc(co2)C(=O)N2CCC[C@@H]2C(=O)O[C@H]([C@@H](C)CN2CCOCC2)[C@H](C)/C=C/C(=O)NC\C=C\1 [SA0110161] | > 64 | > 64 | > 64 | > 64 | > 64 | > 64 | > 64 | > 64 | > 64 | > 64 | > 64 | > 64 | > 64 | > 64 | > 64 | > 64 | > 64 | > 64 | > 64 | > 64 | MIC [12, 22]: > 64 µg/mL
CC1=C\[C@@H](O)CC(=O)Cc2nc(co2)C(=O)N2CCC[C@@H]2C(=O)O[C@H]([C@H](C)COC(=O)Nc2ccc(C)cc2)[C@H](C)/C=C/C(=O)NC\C=C\1 [SA0110184] | > 64 | 16 (≈ 23.6 µM) | 16 (≈ 23.6 µM) | 16 (≈ 23.6 µM) | 16 (≈ 23.6 µM) | 16 (≈ 23.6 µM) | 32 (≈ 47.3 µM) | > 64 | > 64 | 32 (≈ 47.3 µM) | > 64 | > 64 | > 64 | 16 (≈ 23.6 µM) | > 64 | > 64 | > 64 | 4 (≈ 5.91 µM) | 2 (≈ 2.96 µM) | > 64 | MIC [12, 22]: > 64 µg/mL
CC1=C\[C@@H](O)CC(=O)Cc2nc(co2)C(=O)N2CCC[C@@H]2C(=O)O[C@H]([C@@H](C)COC(=O)Nc2ccc3ccccc3n2)[C@H](C)/C=C/C(=O)NC\C=C\1 [SA0110117] | > 64 | 16 (≈ 22.4 µM) | 32 (≈ 44.8 µM) | 16 (≈ 22.4 µM) | 16 (≈ 22.4 µM) | 16 (≈ 22.4 µM) | 32 (≈ 44.8 µM) | > 64 | > 64 | 4 (≈ 5.6 µM) | > 64 | > 64 | > 64 | > 64 | > 64 | > 64 | 8 (≈ 11.2 µM) | 2 (≈ 2.8 µM) | 4 (≈ 5.6 µM) | > 64 | –
CC1=C\[C@@H](O)CC(=O)Cc2nc(co2)C(=O)N2CCC[C@@H]2C(=O)O[C@H]([C@@H](C)COC(=O)Nc2csc(C)n2)[C@H](C)/C=C/C(=O)NC\C=C\1 [SA0110098] | > 64 | 16 (≈ 23.4 µM) | 64 (≈ 93.6 µM) | 64 (≈ 93.6 µM) | 32 (≈ 46.8 µM) | 32 (≈ 46.8 µM) | 64 (≈ 93.6 µM) | > 64 | > 64 | 16 (≈ 23.4 µM) | > 64 | > 64 | > 64 | 32 (≈ 46.8 µM) | > 64 | > 64 | 16 (≈ 23.4 µM) | 2 (≈ 2.92 µM) | 8 (≈ 11.7 µM) | > 64 | –
CC1=C\[C@@H](O)CC(=O)Cc2nc(co2)C(=O)N2CCC[C@@H]2C(=O)O[C@H]([C@@H](C)COC(=O)Nc2ccnc(Br)c2)[C@H](C)/C=C/C(=O)NC\C=C\1 [SA0110081] | > 64 | 32 (≈ 43.1 µM) | > 64 | > 64 | 32 (≈ 43.1 µM) | > 64 | > 64 | > 64 | > 64 | 32 (≈ 43.1 µM) | > 64 | > 64 | > 64 | > 64 | > 64 | > 64 | 32 (≈ 43.1 µM) | 4 (≈ 5.39 µM) | 32 (≈ 43.1 µM) | > 64 | –
